Results as given in patent US20210386829A1, “COMPOSITIONS AND METHODS FOR MODULATING CGRP SIGNALING TO REGULATE INNATE LYMPHOID CELL INFLAMMATORY RESPONSES” (The Broad Institute, Inc., priority 2018, published 2021).

Tested on: lung-resident ILCs
Experiment: SMART-Seq2 plate-based scRNA-seq of lung-resident ILCs from PBS-, IL-25- or IL-33-treated mice, differential gene expression by logistic regression (Tables 3, 4)
Type: in vivo, mouse
Description: Mice and in vivo ILC activation. C57B1/6J mice were purchased from the Jackson Laboratory. Nmur1-LacZ reporter mice with a LacZ cassette knocked into the Nmur1 locus were rederived from Nmur1^tm1.1(KOMP)Vlcg sperm obtained from the trans-NIH Knock-Out Mouse Project (KOMP) Repository. NMU-deficient mice (NMU-KO) were rederived from B6.129S2-Nmu<tm1Mko> embryos from the RIKEN BioResource Center. For experiments with Nmur1-LacZ (Nmur1-KO) and NMU-KO mice, littermates that were either homozygous or heterozygous for the wild type allele were used as controls. Mice were housed under specific-pathogen-free conditions. For experiments, mice were matched for sex and age, and most mice were 6-10 weeks old. Where indicated, mice were anesthetized with Isoflurane and treated intranasally with the indicated stimuli (500 ng IL-25, 500 ng IL-33, or 20 μg Neuromedin U) daily for three consecutive days. The total administered volume was 20 μl for all conditions. Mice were randomly assigned to treatment groups after matching for sex and age. […] Mice were treated intranasally with 10 μg HDM on day 0, 7, 8, and 9, prior to sacrifice on day 10. All experiments were conducted in accordance with animal protocols approved by the Harvard Medical Area Standing Committee on Animals or BWH IACUC.
Fluorescence-activated cell sorting of innate lymphoid cells. After dissociation, single cell suspensions were incubated with CD90.2 MicroBeads (Miltenyi Biotec) on ice and enriched for CD90.2^+ cells by magnetic separation using LS columns according to the manufacturer's protocol. CD90.2^+ lung cells were then stained on ice with antibodies for sorting. ILCs were defined as 7AAD^− CD45^+ CD90.2^+ CD127^+ Lineage (CD11b, CD11c, CD19, NK1.1, […], CD4, CD8a, TCRβ, TCRγδ)^− cells and sorted on a BD FACS Aria (BD Biosciences).
For full-length scRNA-Seq, single ILCs were sorted into 96-well plates containing 5 ul TCL Buffer (QIAGEN) with 1% 2-Mercaptoethanol, centrifuged and frozen at −80° C. SMART-Seq2 protocol was carried out as previously described^23 with minor modifications in the reverse transcription step. cDNA was amplified with 22 cycles and fragmented with one-eighth of the standard Illumina NexteraXT reaction volume. Single-cell libraries were pooled and paired-end sequenced (38 bp×2) with a 75 cycle Nextseq 500 high output V2 kit.
Analysis of SMART-Seq2 plate-based scRNA-Seq data. Reads were aligned to mm10 using Kallisto (Bray, N. L., Pimentel, H., Meisted, P. & Pachter, L. Near-optimal probabilistic RNA-seq quantification. Nat Biotechnol 134, 525-527, doi:10.1038/nbt.3519 (2016)) quant, version 0.42.3. The R package tximport (Soneson, C., Love, M. I. & Robinson, M. D. Differential analyses for RNA-seq: transcript-level estimates improve gene-level inferences [version 2; referees: 2 approved]. F1000Research 4, doi:10.12688/f1000research.7563.2 (2016)), version 1.2.0, was used to convert the output to gene counts and traditional TPM values. Because of the variability in read counts per cell across plates, even from the same condition, as well as in the number of genes per cell across conditions, QC was performed for each of eight plates individually in order to remove cells that were outliers with respect to either measure. Out of 752 cells, 606 cells met QC criteria (234 from control, 152 from IL-25 treated mice, and 220 from IL-33 treated mice), and the number of genes per cell in this set ranged from 1,625 to 6,375. Genes that were not expressed with log(TPM)>2.5 in at least two cells were removed from further analysis. Subsequent analysis proceeded analogously to the droplet-based RNA-seq analysis, with parameter settings that reflected both the wider dynamic range of expression and much smaller cell numbers. The minimum ILC signature score required in ILC type assignment was 0.3. Variable genes were identified by running MeanVarPlot with x.low.cutoff=0.1, y.cutoff=1.5, and x.high.cutoff=10, resulting in a set of 519 genes. […]

IL33 was tested, and the 0610031J06Rik expression coeff was 1.33, the 1700017B05Rik expression coeff was −1.5 and the 1700113H08Rik expression coeff was −1.32. The 4632428N05Rik expression coeff was 1.58, the AA467197 expression coeff was 2.99 and the AI593442 expression coeff was −3.15. For the same substance, the AI836003 expression coeff was −1.26, the AW112010 expression coeff was 0.998 and the Abtb2 expression coeff was 1.34. The Acot7 expression coeff was 1.78, the Adrbk1 expression coeff was 1.08 and the Adsl expression coeff was −0.98. It also gave an Ahcyl2 expression coeff of −1.24, an Amd1 expression coeff of −1.75 and an Anxa2 expression coeff of 1.81. It also gave an Ap3d1 expression coeff of 0.94, an Arf5 expression coeff of 0.972 and an Arhgap1 expression coeff of 1.12. The Arhgap26 expression coeff was 1.3, the Asl expression coeff was 1.31 and the Asph expression coeff was −1.56. For the same substance, the Atp8b4 expression coeff was 1.07, the Atxn7l3b expression coeff was 0.957 and the Bcl2a1d expression coeff was 0.97. The Bcl3 expression coeff was 1.42, the Bcl6 expression coeff was 1.98 and the Bmp2 expression coeff was −2.03. For the same substance, the Brix1 expression coeff was −1.21, the C1qbp expression coeff was −1.08 and the Cap1 expression coeff was 1.24. It also gave a Cblb expression coeff of 0.969, a Ccdc50 expression coeff of 0.948 and a Ccdc142 expression coeff of −1.56. It also gave a Ccng1 expression coeff of 0.916, a Ccr2 expression coeff of −1.11 and a Cd247 expression coeff of 1.52. The Chdh expression coeff was 1.07, the Chordc1 expression coeff was 1.09 and the Chst11 expression coeff was 1.25. For the same substance, the Cirbp expression coeff was −1.67, the Commd10 expression coeff was −1.3 and the Cox10 expression coeff was 0.894. For the same substance, the Cpsf7 expression coeff was 1.13, the Crlf2 expression coeff was 1.16 and the Csf1 expression coeff was −1.61. The Cst7 expression coeff was 1.5, the Ctla4 expression coeff was 2.65 and the Ctsw expression coeff was 1.07. For the same substance, the Cybrd1 expression coeff was −1.22, the Dcaf12 expression coeff was 0.975 and the Ddrgk1 expression coeff was −0.935. The Ddx20 expression coeff was −1.92, the Ddx58 expression coeff was 0.912 and the Dennd5a expression coeff was 0.993. The Dgka expression coeff was 1.02, the Dhx35 expression coeff was −1.51 and the Dhx37 expression coeff was −0.889. For the same substance, the Dhx58 expression coeff was 2.39, the Dkk3 expression coeff was 0.959 and the Dock10 expression coeff was −0.886. For the same substance, the E030030I06Rik expression coeff was −1.01, the Ecm1 expression coeff was 1.16 and the Endod1 expression coeff was 1.51. The Epsti1 expression coeff was 1.72, the Eva1b expression coeff was 1.29 and the Exosc4 expression coeff was −0.925. The Extl3 expression coeff was −1.19, the Fam118a expression coeff was −0.991 and the Fbxl21 expression coeff was −2.6. For the same substance, the Ffar2 expression coeff was 1.38, the Fhl2 expression coeff was −0.933 and the Fosb expression coeff was −0.948. It also gave a Foxo3 expression coeff of 1.17, a Fus expression coeff of −0.954 and a Gal3st3 expression coeff of −1.08. For the same substance, the Gba expression coeff was 0.976, the Gbp4 expression coeff was 0.935 and the Gbp6 expression coeff was 1.87. For the same substance, the Gbp9 expression coeff was 1.12, the Gga1 expression coeff was 1.33 and the Gigyf1 expression coeff was −0.966. For the same substance, the Glrx expression coeff was 1.26, the Gm12250 expression coeff was 3.39 and the Gnai2 expression coeff was 1.04. It also gave a Gng2 expression coeff of 1.35, a Gnl3l expression coeff of −1.25 and a Gp49a expression coeff of 1.62. It also gave a Gpr108 expression coeff of 0.909, a Grn expression coeff of 1.55 and a Gskip expression coeff of 1.72. It also gave a Gucd1 expression coeff of 1.09, an H2-T9 expression coeff of 1.1 and an H2-T10 expression coeff of 0.906. It also gave an H2-T22 expression coeff of 1.27, a Herc6 expression coeff of 1.21 and a Hpcal1 expression coeff of 1.26. For the same substance, the Hsph1 expression coeff was 1.26, the Idh2 expression coeff was −1.43 and the Ifi35 expression coeff was 0.95. The Ifngr2 expression coeff was −0.881, the Ifrd2 expression coeff was −1.74 and the Igfbp4 expression coeff was −2.3. For the same substance, the Igsf5 expression coeff was −1.13, the Il2rb expression coeff was 1.27 and the Il5 expression coeff was 1.34. It also gave an Il13 expression coeff of 1.57, an Impact expression coeff of −1.54 and an Inpp1 expression coeff of 1.29. For the same substance, the Inpp4b expression coeff was −0.999, the Inpp5b expression coeff was 1.22 and the Irf4 expression coeff was 1.58. It also gave an Irf7 expression coeff of 1.43, an Isg15 expression coeff of 3.16 and an Isg20 expression coeff of 2.26. The Itgae expression coeff was 1.21, the Kit expression coeff was −1.23 and the Krit1 expression coeff was 1.04. The Lamp2 expression coeff was 0.996, the Lancl1 expression coeff was −1.58 and the Lat2 expression coeff was 1.05. It also gave a Lcmt2 expression coeff of −1.12, a Lgals3bp expression coeff of 1.95 and a Lgals3 expression coeff of 1.4. It also gave a Lilrb4 expression coeff of 2.11, a Lpcat2 expression coeff of −1.56 and a Lsm6 expression coeff of −1.12. It also gave a Lxn expression coeff of 1.29, a Ly6a expression coeff of 1.67 and a Map2k4 expression coeff of 1.64. For the same substance, the Marf1 expression coeff was 1.15.
